Results published in US20230330254A1 (Regeneron Pharmaceuticals, Inc., priority 2022, published 2023).
Where a SMILES comes first, the peptide text is derived from it. [ ]: non-standard residue; d: D form. The star is where a group is joined. Bip(2'-Et,4'-O(CH2)4NH2) = CCc1cc(OCCCCN)ccc1-c1ccc(C[C@H](N)C(=O)O)cc1; Nva(5-(3,5-Me2Ph)) = Cc1cc(C)cc(CCC[C@H](N)C(=O)O)c1; Ala(1H-tetrazol-5-yl) = N[C@@H](Cc1nnn[nH]1)C(=O)O; αMePhe(2-F) = C[C@](N)(Cc1ccccc1F)C(=O)O; Desaminohistidyl = O=C(CCc1c[nH]cn1)*

What was measured:
[1] = Plasma stability of payloads and linker-payloads, human plasma; format: in vitro ADME; conditions: plasma, pH 7.4, tested time C (3 days), 2 μM, 37° C., read-out: Human plasma stability assay T½ (converted)
Procedure: The plasma stability of payloads and linker payloads of the disclosure were measured. For the assay, pooled frozen plasma (human, mouse or monkey) was thawed in cold water or a 37° C. water bath prior to experiment. Plasma was centrifuged at 4000 rpm for 5 min if any clots were observed, they were subsequently removed. If required, the pH was adjusted to 7.4±0.1. For the preparation of compounds and positive controls, a 1 mM intermediate solution was prepared by diluting 10 μL of their stock solution with 90 μL DMSO; a 1 mM intermediate solution of the positive control (Propantheline) was prepared by diluting 10 μL of its stock solution with 90 μL ultrapure water. […] 98 μL of plasma was spiked with 2 μL of dosing solution (100 μM) to achieve the final concentration of 2 μM in duplicate. Samples were then incubated at 37° C. in a water bath. […] At each time point, 400 μL of stop solution (200 ng/mL tolbutamide plus 200 ng/mL labetalol in 50% ACN/MeOH) was added to precipitate protein and mixed thoroughly. Sample plates were then centrifuged at 4,000 rpm for 10 min. An aliquot of supernatant (50 μL) was transferred from each well and mixed with 100 μL ultrapure water. The samples were then shaken at 800 rpm for approximately 10 min before submitting for LC-MS/MS analysis.

human GLP1R [2] = target: T1, human GLP1R (Homo sapiens, UniProt P43220); assay: Luciferase reporter assay, HEK293/CRE-Luc/hGLP1R (Example 17); format: cell-based; design: engineered to express full-length human GLP1R, cynomolgus GLP1R; expressed in transfected cells; host or cells: HEK293/CRE-Luc; conditions: HEK293/CRE-Luc/hGLP1R; for S/N: highest RLU / RLU of untreated wells; for Relative Potency (% M2361 EC50) / Relative Signal:Noise (% M2361): relative to M2361 of the same experiment
T1 sequence (P43220 24-463): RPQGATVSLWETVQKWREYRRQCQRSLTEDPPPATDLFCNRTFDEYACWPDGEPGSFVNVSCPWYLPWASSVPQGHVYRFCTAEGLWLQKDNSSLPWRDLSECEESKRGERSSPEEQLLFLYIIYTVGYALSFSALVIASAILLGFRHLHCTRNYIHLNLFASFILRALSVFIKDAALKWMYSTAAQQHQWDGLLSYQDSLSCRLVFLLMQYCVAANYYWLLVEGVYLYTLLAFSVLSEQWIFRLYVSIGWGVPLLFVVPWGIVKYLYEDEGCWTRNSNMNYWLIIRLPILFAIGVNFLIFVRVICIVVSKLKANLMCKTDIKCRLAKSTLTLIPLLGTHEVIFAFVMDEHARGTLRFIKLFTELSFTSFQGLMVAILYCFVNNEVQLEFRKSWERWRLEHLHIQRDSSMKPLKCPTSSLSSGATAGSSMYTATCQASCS
In short: (§1)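 HEK293 cells carrying a CRE-driven firefly luciferase reporter were exposed to 3-fold serial dilutions of payloads or linker-payloads (12 points, 0.2% DMSO final) for 4–6 h, then luminescence was read. EC50 came from a four-parameter logistic fit; S/N is top RLU over untreated wells, and relative potency and S/N are referenced to M2361.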

HEK293/CRE-Luc cells [3] = assay: Luciferase reporter assay, HEK293/CRE-Luc cells without hGLP1R (Example 11); format: cell-based, human; conditions: Table 11; Experiment A; no hGLP1R expression
Text: (§2) To test the activity of GLP1R agonist payloads, GLP1R agonist linker-payloads (LPs), and anti-GLP1R antibody tethered drug conjugates (ATDCs) of the disclosure, a cell-based cAMP responsive luciferase reporter assay was developed. To generate the assay cell line, the firefly luciferase gene was placed under the control of a cAMP response element (CRE) located upstream of a minimal promoter and transfected into HEK293 cells and referred to herein as HEK293/CRE-Luc cells.
(§3) Three-fold serial dilutions of free payloads or LPs were prepared in 100% DMSO, transferred to fresh assay media, and added to the cells at a final constant DMSO concentration of 0.2%. The last well in the plate served as a blank control containing only the assay media and 0.2% DMSO (untreated well) and was plotted as a continuation of the 3-fold serial dilution. Four to six hours later, luciferase activity was determined after the addition of One-Glo™ reagent (Promega, Cat #E6130) to each well. Relative light units (RLUs) were measured on an Envision luminometer (PerkinElmer) and EC50 values were determined using a four-parameter logistic equation over a 12-point dose response curve (GraphPad Prism). The signal to noise (S/N) was determined by taking the ratio of the highest RLU on the dose response curve to the RLU in the untreated wells.

human GLP1R [4] = target: T1, human GLP1R; assay: Luciferase reporter assay, HEK293/CRE-Luc/hGLP1R cells (Example 11); format: cell-based; design: engineered to express full-length human GLP1R, cynomolgus GLP1R; expressed in transfected cells; host or cells: HEK293/CRE-Luc; conditions: Table 11; Experiment A
Text: as §2, §3
GLP1R agonist linker payloads were conjugated to anti-hGLP1R antibodies via N-terminal heavy or light chain Q tags. Several resulting anti-GLP1R antibody tethered drug conjugates (ATDCs) were tested for activity in the HEK293/CRE-Luc/hGLP1R reporter assay as described above for the free GLP1R payload and linker-payload agonists.

HEK293/CRE-Luc cells [5] = assay: Luciferase reporter assay, HEK293/CRE-Luc cells without GLP1R (Example 17); format: cell-based, human; conditions: HEK293/CRE-Luc cells without hGLP1R, payloads and linker-payloads; for EC50: read-out: EC50
In short: as §1

human GLP1R [6] = target: T1, human GLP1R; assay: Human GLP1R cAMP accumulation assay; format: cell-based; design: HEK293 cells over-expressing full length human GLP-1R were utilized; expressed in transfected cells; host or cells: HEK293 (HEK293/hGLP1R); conditions: HEK293/hGLP1R cells; Table 4; read-out: cAMP EC50
Procedure: 8.1 Human GLP1R cAMP Accumulation Assay (Cyclic AMP Determination)
The functional activity of the test compounds for agonizing GLP1R were evaluated using a cell-based assay. For the assay, HEK293 cells over-expressing full length human GLP-1R were utilized and the downstream cAMP accumulation was assessed as a measure of human GLP-1R stimulation. […] Diluted compounds were transferred to OptiPlates (100 nL/well) using an Echo liquid handler. HEK293/hGLP1R cells were thawed in 37° C. water-bath, washed 2 times with HBSS and re-suspended in assay buffer (HBSS+5 mM HEPES+500 μM IBMX+0.1% BSA). […] After centrifugation, the assay plate was incubated at 23° C. for 30 min. The reaction was terminated by adding 10 μL of lysis buffer containing D2-cAMP and a cAMP-antibody from the cyclic AMP immunoassay kit (Cisbio, Cat #62AM4PEJ). […] The levels of cAMP per well were calculated using a standard curve generated by GraphPad Prism. Percent activity was calculated according to the formula (% Activity=100%*(cAMP level-LC)/(HC-LC)). EC50 values were fitted from a four-parameter logistic equation over a 10-point response curve (GraphPad Prism).

| Compound | half-life at 2 µM [1] [days] | S/N (human GLP1R [2]) | Relative Potency (% M2361 EC50) (human GLP1R [2]) [%] | Relative Signal:Noise (% M2361) (human GLP1R [2]) [%] | EC50 (HEK293/CRE-Luc cells [3]) [nM] | HEK293/CRE-LUC S/N (HEK293/CRE-Luc cells [3]) | HEK293/CRE-LUC/hGLP1R Relative Potency (% P8 EC50) (human GLP1R [4]) [%] | HEK293/CRE-LUC/hGLP1R S/N (human GLP1R [4]) | S/N (HEK293/CRE-Luc cells [5]) | EC50 (HEK293/CRE-Luc cells [5]) [nM] | EC50 (human GLP1R [6]) [nM] | EC50 (human GLP1R [4]) [nM] | EC50 (human GLP1R [2]; payloads and linker-payloads, experiments A-E, M2361 repeated in each, read-out: EC50) [nM] |
| --- | --- | --- | --- | --- | --- | --- | --- | --- | --- | --- | --- | --- | --- |
| CCc1cc(OCCCCn2cc(COCCOCCOCCOCCOCCOCCOCCOCCNC(=O)CCC(=O)N3Cc4ccccc4-c4nn[nH]c4-c4ccccc43)nn2)ccc1-c1ccc(C[C@H](NC(=O)[C@H](CC(=O)O)NC(=O)[C@H](CO)NC(=O)[C@@H](NC(=O)C(C)(Cc2ccccc2F)NC(=O)[C@@H](NC(=O)CNC(=O)[C@H](Cc2nn[nH]n2)NC(=O)C(C)(C)C(=O)NCCc2cnc[nH]2)[C@@H](C)O)[C@@H](C)O)C(=O)N[C@@H](CCCc2cc(C)cc(C)c2)C(N)=O)cc1 (some centres unmarked) [LP28, triazole-DIBAC-suc-PEG8-triazole-P8] | > 7.23 |  |  |  |  |  |  |  |  |  |  |  |  |
| CCc1cc(OCCCCN)ccc1-c1ccc(C[C@H](NC(=O)[C@H](CC(=O)O)NC(=O)[C@H](CO)NC(=O)[C@@H](NC(=O)[C@](C)(Cc2ccccc2F)NC(=O)[C@@H](NC(=O)CNC(=O)[C@H](Cc2nn[nH]n2)NC(=O)CNC(=O)CCc2cnc[nH]2)[C@@H](C)O)[C@@H](C)O)C(=O)N[C@@H](CCCc2cc(C)cc(C)c2)C(N)=O)cc1 [P12] (Desaminohistidyl-G[Ala(1H-tetrazol-5-yl)]GT[αMePhe(2-F)]TSD[Bip(2'-Et,4'-O(CH2)4NH2)][Nva(5-(3,5-Me2Ph))]-NH2) |  | 76.4 | 46.5 | 116.2 | > 200 | 1.2 | 46.5 | 76.4 | 1.2 | > 200 |  |  |  |
| CCc1cc(OCCCCN)ccc1-c1ccc(C[C@H](NC(=O)[C@H](CC(=O)O)NC(=O)[C@H](CO)NC(=O)[C@@H](NC(=O)[C@](C)(Cc2ccccc2F)NC(=O)[C@@H](NC(=O)CNC(=O)[C@H](Cc2nn[nH]n2)NC(=O)[C@@]2(C)CCN(CCc3cnc[nH]3)C2=O)[C@@H](C)O)[C@@H](C)O)C(=O)N[C@@H](CCCc2cc(C)cc(C)c2)C(N)=O)cc1 [P15-R] |  |  |  |  | > 200 | 1.1 | 40.3 | 67.8 |  |  | 0.117 | 0.0132 |  |
| CCc1cc(OCCCCN)ccc1-c1ccc(C[C@H](NC(=O)[C@H](CC(=O)O)NC(=O)[C@H](CO)NC(=O)[C@@H](NC(=O)[C@](C)(Cc2ccccc2F)NC(=O)[C@@H](NC(=O)CNC(=O)[C@H](Cc2nn[nH]n2)NC(=O)C(C)(C)C(=O)NCCc2cnc[nH]2)[C@@H](C)O)[C@@H](C)O)C(=O)Nc2ccccc2)cc1 [P22] |  | 48.9 | 1.2 | 74.4 |  |  |  |  | 1.5 | > 200 | 0.603 |  | 0.44 |
